# Read-outs that look alike come from different tables or passages of the source.
# What was measured:
# [1] = Part A single-ascending-dose plasma PK in healthy subjects; assay type: in vivo, human; details: for half-life / AUC(0-inf) / Cmax / clearance / Tmax / AUC(0-t) / Vd: human, plasma; for Tmax: median; for Vd: read-out: Vss
# Procedure: (§1) This was a 4-part, double-blind, placebo-controlled study (15 cohorts) of DUR administered as a 3-h i.v. infusion (except for cohort 4, in which a 2-h i.v. infusion was evaluated) (see Table S5 in the supplemental material).
# (§2) The blank control matrix was made up of human plasma (BioreclamationIVT) diluted 1:1 with SigmaFast (reconstituted protease inhibitor cocktail tablet [product S8820; Sigma-Aldrich, St. Louis, MO] in 10 ml of water) for preparation of calibration standards and QC samples. […] A 100-μl aliquot of the supernatant was transferred to 96-well plates. Samples were diluted further with 400 μl of water, and 5 μl of sample was injected into the LC-MS/MS system for analysis. […] The LLOQ for all analytes was 5 ng/ml.
# (§3) AUC was calculated using the log-linear trapezoidal rule.
# (§4) Pharmacokinetic parameters were summarized at each assessment time point using the mean ± standard deviation (SD), the percent coefficient of variation (CV), median, minimum, and maximum. Single-ascending-dose study data were assessed for dose proportionality using Cmax and AUC, and accumulation ratios was determined using repeat-dose cohorts. […] Noncompartmental analysis of PK parameters was performed using Phoenix WinNonlin (v6.4) software to determine PK parameters.
# [2] = Protein binding in human plasma; assay type: in vitro ADME
# clinical = details: human, in vivo
# Procedure: as §2, §3, §4
# [3] = Part B multiple-ascending-dose plasma PK in healthy subjects; assay type: in vivo, human; details: for Cmax / Tmax / AUC / clearance / half-life / Vd: human, plasma, iv; for AUC: read-out: AUC0–tau; for Vd: read-out: Vss
# Procedure: as §1, §2, §3, §4
# [4] = cohort of elderly subjects, DUR 1 g
# [5] = iv, 0.25 g, part A cohort 1, single 0.25 g, 3-h i.v. infusion
# [6] = iv, 0.5 g, part A cohort 2, single 0.5 g, 3-h i.v. infusion
# [7] = iv, 1 g, part A cohort 3, single 1.0 g, 3-h i.v. infusion
# [8] = iv, 1 g, part A cohort 4, single 1.0 g, 2-h i.v. infusion
# [9] = iv, 1 g, part A cohort 8 (elderly subjects >65 years), single 1.0 g, 3-h i.v. infusion
# [10] = iv, 2 g, part A cohort 5, single 2.0 g, 3-h i.v. infusion
# [11] = iv, 4 g, part A cohort 6, single 4.0 g, 3-h i.v. infusion
# [12] = iv, 8 g, part A cohort 7, single 8.0 g, 3-h i.v. infusion
# [13] = 0.25 g, part B cohort 9, 0.25 g q6h 3-h i.v. infusion, day 1
# [14] = 0.25 g, part B cohort 9, 0.25 g q6h 3-h i.v. infusion, day 8
# [15] = 0.5 g, part B cohort 10 (4 subjects), 0.5 g q6h 3-h i.v. infusion, day 1
# [16] = 0.5 g, part B cohort 10 (4 subjects), 0.5 g q6h 3-h i.v. infusion, day 8
# [17] = 1 g, part B cohort 11 (5 subjects), 1.0 g q6h 3-h i.v. infusion, day 1
# [18] = 1 g, part B cohort 11 (5 subjects), 1.0 g q6h 3-h i.v. infusion, day 8
# [19] = 2 g, part B cohort 12, 2.0 g q6h 3-h i.v. infusion, day 1
# [20] = 2 g, part B cohort 12, 2.0 g q6h 3-h i.v. infusion, day 8
# [21] = part B cohort 9, 0.25 g q6h 3-h i.v. infusion, day 8
# [22] = part B cohort 10 (4 subjects), 0.5 g q6h 3-h i.v. infusion, day 8
# [23] = part B cohort 11 (5 subjects), 1.0 g q6h 3-h i.v. infusion, day 8
# [24] = part B cohort 12, 2.0 g q6h 3-h i.v. infusion, day 8
structure (smiles),measurement,setting,value
"CC1=C[C@@H]2CN(C(=O)N2OS(=O)(=O)O)[C@@H]1C(N)=O [DUR, Durlobactam]",increase in Cmax with 2-h infusion compared with 3-h infusion,"[1]; cohort 4, DUR 1 g",approximately 50%
same,increase in AUC in elderly subjects compared with younger subjects,"[1]; cohort 8, DUR 1 g",2 fold
same,increase in Cmax in elderly subjects compared with younger subjects,"[1]; cohort 8, DUR 1 g",1.8 fold
same,increase in exposure in elderly subjects,[1]; [4],100%
same,reduction of renal clearance in elderly subjects,[1]; [4],approximately 50%
same,reduction of volume of distribution (V) in elderly subjects,[1]; [4],approximately 50%
same,half-life,"[1]; intravenous, range across single doses of 0.25 g to 8 g, read-out: mean half-life (t1/2)",1.5 to 2.8 h
same,AUC(0-inf),[1]; [5],25.5 ± 3.7 µg·h/mL
same,Cmax,[1]; [5],6900 ± 1000 ng/mL
same,clearance,[1]; [5],167 mL/min
same,half-life,"[1]; iv, 0.25 g, part A cohort 1, single 0.25 g, 3-h i.v. infusion, mean ± SD, n=6, read-out: t1/2 (converted)",1.5 ± 0.1 h
same,Tmax,[1]; [5],3 h
same,AUC(0-t),"[1]; iv, 0.25 g, part A cohort 1, single 0.25 g, 3-h i.v. infusion, read-out: AUC0–24",25.5 ± 3.7 µg·h/mL
same,AUC(0-t),"[1]; iv, 0.25 g, part A cohort 1, single 0.25 g, 3-h i.v. infusion, read-out: AUC0–t",25.4 ± 3.7 µg·h/mL
same,Vd,[1]; [5],16.6 ± 3.6 L
same,AUC(0-inf),[1]; [6],47.8 ± 7.6 µg·h/mL
same,Cmax,[1]; [6],9900 ± 2000 ng/mL
same,clearance,[1]; [6],178 mL/min
same,half-life,"[1]; iv, 0.5 g, part A cohort 2, single 0.5 g, 3-h i.v. infusion, mean ± SD, n=6, read-out: t1/2 (converted)",2 ± 0.4 h
same,Tmax,[1]; [6],3 h
same,AUC(0-t),"[1]; iv, 0.5 g, part A cohort 2, single 0.5 g, 3-h i.v. infusion, read-out: AUC0–24",47.7 ± 7.5 µg·h/mL
same,AUC(0-t),"[1]; iv, 0.5 g, part A cohort 2, single 0.5 g, 3-h i.v. infusion, read-out: AUC0–t",47.4 ± 7.7 µg·h/mL
same,Vd,[1]; [6],25.8 ± 2.9 L
same,AUC(0-inf),[1]; [7],76.1 ± 10.5 µg·h/mL
same,Cmax,[1]; [7],20700 ± 2800 ng/mL
same,clearance,[1]; [7],223 mL/min
same,half-life,"[1]; iv, 1 g, part A cohort 3, single 1.0 g, 3-h i.v. infusion, mean ± SD, n=6, read-out: t1/2 (converted)",2 ± 0.3 h
same,Tmax,[1]; [7],3 h
same,AUC(0-t),"[1]; iv, 1 g, part A cohort 3, single 1.0 g, 3-h i.v. infusion, read-out: AUC0–24",76.1 ± 10.5 µg·h/mL
same,AUC(0-t),"[1]; iv, 1 g, part A cohort 3, single 1.0 g, 3-h i.v. infusion, read-out: AUC0–t",75.6 ± 10.4 µg·h/mL
same,Vd,[1]; [7],25.7 ± 5 L
same,AUC(0-inf),[1]; [8],101 ± 28.9 µg·h/mL
same,Cmax,[1]; [8],31300 ± 6900 ng/mL
same,clearance,[1]; [8],177 mL/min
same,half-life,"[1]; iv, 1 g, part A cohort 4, single 1.0 g, 2-h i.v. infusion, mean ± SD, n=6, read-out: t1/2 (converted)",2.2 ± 0.2 h
same,Tmax,[1]; [8],2 h
same,AUC(0-t),"[1]; iv, 1 g, part A cohort 4, single 1.0 g, 2-h i.v. infusion, read-out: AUC0–24",101 ± 28.9 µg·h/mL
same,AUC(0-t),"[1]; iv, 1 g, part A cohort 4, single 1.0 g, 2-h i.v. infusion, read-out: AUC0–t",101 ± 29 µg·h/mL
same,Vd,[1]; [8],22.7 ± 6.4 L
same,AUC(0-inf),[1]; [9],151 ± 14.1 µg·h/mL
same,Cmax,[1]; [9],37800 ± 2500 ng/mL
same,clearance,[1]; [9],112 mL/min
same,half-life,"[1]; iv, 1 g, part A cohort 8 (elderly subjects >65 years), single 1.0 g, 3-h i.v. infusion, mean ± SD, n=6, read-out: t1/2 (converted)",2.4 ± 0.3 h
same,Tmax,[1]; [9],3 h
same,AUC(0-t),"[1]; iv, 1 g, part A cohort 8 (elderly subjects >65 years), single 1.0 g, 3-h i.v. infusion, read-out: AUC0–24",151 ± 14 µg·h/mL
same,AUC(0-t),"[1]; iv, 1 g, part A cohort 8 (elderly subjects >65 years), single 1.0 g, 3-h i.v. infusion, read-out: AUC0–t",151 ± 14 µg·h/mL
same,Vd,[1]; [9],14.5 ± 2 L
same,AUC(0-inf),[1]; [10],173 ± 25.6 µg·h/mL
same,Cmax,[1]; [10],41500 ± 6400 ng/mL
same,clearance,[1]; [10],197 mL/min
same,half-life,"[1]; iv, 2 g, part A cohort 5, single 2.0 g, 3-h i.v. infusion, mean ± SD, n=6, read-out: t1/2 (converted)",2.2 ± 0.2 h
same,Tmax,[1]; [10],2.5 h
same,AUC(0-t),"[1]; iv, 2 g, part A cohort 5, single 2.0 g, 3-h i.v. infusion, read-out: AUC0–24",173 ± 25.6 µg·h/mL
same,AUC(0-t),"[1]; iv, 2 g, part A cohort 5, single 2.0 g, 3-h i.v. infusion, read-out: AUC0–t",173 ± 25.6 µg·h/mL
same,Vd,[1]; [10],24.3 ± 3.2 L
same,AUC(0-inf),[1]; [11],368 ± 55.9 µg·h/mL
same,Cmax,[1]; [11],96200 ± 13600 ng/mL
same,clearance,[1]; [11],185 mL/min
same,half-life,"[1]; iv, 4 g, part A cohort 6, single 4.0 g, 3-h i.v. infusion, mean ± SD, n=6, read-out: t1/2 (converted)",2.7 ± 0.6 h
same,Tmax,[1]; [11],3 h
same,AUC(0-t),"[1]; iv, 4 g, part A cohort 6, single 4.0 g, 3-h i.v. infusion, read-out: AUC0–24",367 ± 55.1 µg·h/mL
same,AUC(0-t),"[1]; iv, 4 g, part A cohort 6, single 4.0 g, 3-h i.v. infusion, read-out: AUC0–t",368 ± 55 µg·h/mL
same,Vd,[1]; [11],22.4 ± 3.6 L
same,AUC(0-inf),[1]; [12],732 ± 163 µg·h/mL
same,Cmax,[1]; [12],176000 ± 29000 ng/mL
same,clearance,[1]; [12],190 mL/min
same,half-life,"[1]; iv, 8 g, part A cohort 7, single 8.0 g, 3-h i.v. infusion, mean ± SD, n=6, read-out: t1/2 (converted)",2.8 ± 0.4 h
same,Tmax,[1]; [12],3 h
same,AUC(0-t),"[1]; iv, 8 g, part A cohort 7, single 8.0 g, 3-h i.v. infusion, read-out: AUC0–24",730 ± 164 µg·h/mL
same,AUC(0-t),"[1]; iv, 8 g, part A cohort 7, single 8.0 g, 3-h i.v. infusion, read-out: AUC0–t",731 ± 163 µg·h/mL
same,Vd,[1]; [12],28.1 ± 9.5 L
same,fraction unbound,[2],0.1
same,AUC0–24,clinical,104.4 ± 6.6 µg·h/mL
same,CL,clinical,9.6 ± 0.6 L/h
same,Cmax,clinical,26900 ± 3600 ng/mL
same,Vss,clinical,17.6 ± 2.0 L
same,AUC(0-t),clinical; AUC0–24,106 ± 31.5 µg·h/mL
same,clearance,clinical; CL,165 mL/min
same,Cmax,clinical; Cmax,30000 ± 9200 ng/mL
same,Vd,clinical; Vss,15.9 ± 2.6 L
same,half-life,clinical; t1/2,1.8 ± 0.4 h
same,Cmax,[3]; [13],6900 ± 1400 ng/mL
same,Tmax,"[3]; 0.25 g, part B cohort 9, 0.25 g q6h 3-h i.v. infusion, day 1, median",3 h
same,AUC,[3]; [13],23.1 ± 4.9 µg·h/mL
same,Cmax,[3]; [14],7500 ± 1300 ng/mL
same,Tmax,"[3]; 0.25 g, part B cohort 9, 0.25 g q6h 3-h i.v. infusion, day 8, median",2.5 h
same,AUC,[3]; [14],26.2 ± 5.2 µg·h/mL
same,Cmax,[3]; [15],14900 ± 2200 ng/mL
same,Tmax,"[3]; 0.5 g, part B cohort 10 (4 subjects), 0.5 g q6h 3-h i.v. infusion, day 1, median",3 h
same,AUC,[3]; [15],50.3 ± 9 µg·h/mL
same,Cmax,[3]; [16],14800 ± 1100 ng/mL
same,Tmax,"[3]; 0.5 g, part B cohort 10 (4 subjects), 0.5 g q6h 3-h i.v. infusion, day 8, median",3 h
same,AUC,[3]; [16],53.4 ± 4.8 µg·h/mL
same,Cmax,[3]; [17],26900 ± 13100 ng/mL
same,Tmax,"[3]; 1 g, part B cohort 11 (5 subjects), 1.0 g q6h 3-h i.v. infusion, day 1, median",2.5 h
same,AUC,[3]; [17],79.8 ± 35.9 µg·h/mL
same,Cmax,[3]; [18],33400 ± 6000 ng/mL
same,Tmax,"[3]; 1 g, part B cohort 11 (5 subjects), 1.0 g q6h 3-h i.v. infusion, day 8, median",3 h
same,AUC,[3]; [18],109 ± 13.9 µg·h/mL
same,Cmax,[3]; [19],51900 ± 8000 ng/mL
same,Tmax,"[3]; 2 g, part B cohort 12, 2.0 g q6h 3-h i.v. infusion, day 1, median",3 h
same,AUC,[3]; [19],179 ± 29.9 µg·h/mL
same,Cmax,[3]; [20],53300 ± 7800 ng/mL
same,Tmax,"[3]; 2 g, part B cohort 12, 2.0 g q6h 3-h i.v. infusion, day 8, median",3 h
same,AUC,[3]; [20],193 ± 31.2 µg·h/mL
same,clearance,[3]; [21],163 mL/min
same,half-life,[3]; [21],1.9 ± 0.4 h
same,Vd,[3]; [21],18.5 ± 2.9 L
same,clearance,[3]; [22],157 mL/min
same,half-life,[3]; [22],2.6 ± 0.1 h
same,Vd,[3]; [22],18.1 ± 1.8 L
same,clearance,[3]; [23],155 mL/min
same,half-life,[3]; [23],3.5 ± 0.9 h
same,Vd,[3]; [23],17.2 ± 2 L
same,clearance,[3]; [24],177 mL/min
same,half-life,[3]; [24],10.1 ± 2.9 h
same,Vd,[3]; [24],21.8 ± 2 L
same,Accum. index,[3]; [21],1.1 ± 0.07
same,Accum. index,[3]; [22],1.3 ± 0.01
same,Accum. index,[3]; [23],1.5 ± 0.18
same,Accum. index,[3]; [24],3.0 ± 0.69
